From the NIST ThermoML archive (doi:10.1021/je0501639)
Numbers after ± are expanded uncertainties.

Legend:
[1] = xn = mol fraction of the nth substance listed; conditions: 100.8 kPa, Liquid
[2] = refractive index (Na D-line) (dimensionless); xn = mol fraction of the nth substance listed; conditions: 100.8 kPa, Liquid, Standard Abbe refractometry

CC(C)(C)O [2-methylpropan-2-ol] + CC(C)CC(C)(C)C
Conditions | mass density, 298.15 K [kg/m3] | mass density, 308.15 K [kg/m3] | mass density, 318.15 K [kg/m3] | refractive index, 298.15 K | refractive index, 308.15 K | refractive index, 318.15 K | viscosity, 298.15 K [mPa·s] | viscosity, 308.15 K [mPa·s] | viscosity, 318.15 K [mPa·s]
[1], x1 = 0.05 | 689.77 ± 0.32 | 681.15 ± 0.33 | 672.12 ± 0.34 | – | – | – | 0.483 ± 0.018 | 0.425 ± 0.017 | 0.377 ± 0.016
[1], x1 = 0.1 | 691.89 ± 0.32 | 683.25 ± 0.33 | 674.11 ± 0.34 | – | – | – | 0.509 ± 0.019 | 0.449 ± 0.018 | 0.4 ± 0.017
[1], x1 = 0.15 | 694.45 ± 0.32 | 685.62 ± 0.33 | 676.56 ± 0.34 | – | – | – | 0.515 ± 0.019 | 0.447 ± 0.018 | 0.394 ± 0.017
[1], x1 = 0.2 | 697.14 ± 0.32 | 688.28 ± 0.33 | 679.2 ± 0.33 | – | – | – | 0.553 ± 0.02 | 0.478 ± 0.018 | 0.413 ± 0.017
[1], x1 = 0.25 | 700.02 ± 0.32 | 691.11 ± 0.33 | 681.96 ± 0.33 | – | – | – | 0.564 ± 0.02 | 0.48 ± 0.018 | 0.42 ± 0.017
[1], x1 = 0.3 | 703.12 ± 0.32 | 694.14 ± 0.33 | 684.92 ± 0.33 | – | – | – | 0.598 ± 0.021 | 0.522 ± 0.019 | 0.449 ± 0.018
[1], x1 = 0.35 | 706.4 ± 0.32 | 697.38 ± 0.33 | 688.11 ± 0.33 | – | – | – | 0.614 ± 0.021 | 0.523 ± 0.019 | 0.45 ± 0.018
[1], x1 = 0.4 | 709.87 ± 0.32 | 700.8 ± 0.33 | 691.43 ± 0.33 | – | – | – | 0.665 ± 0.023 | 0.564 ± 0.02 | 0.48 ± 0.018
[1], x1 = 0.45 | 713.52 ± 0.32 | 704.42 ± 0.32 | 694.99 ± 0.33 | – | – | – | 0.698 ± 0.023 | 0.59 ± 0.021 | 0.504 ± 0.019
[1], x1 = 0.5 | 717.43 ± 0.32 | 708.24 ± 0.32 | 698.77 ± 0.33 | – | – | – | 0.765 ± 0.025 | 0.633 ± 0.022 | 0.542 ± 0.02
[1], x1 = 0.55 | 721.62 ± 0.32 | 712.37 ± 0.32 | 702.81 ± 0.33 | – | – | – | 0.805 ± 0.026 | 0.672 ± 0.023 | 0.564 ± 0.02
[1], x1 = 0.6 | 726.19 ± 0.32 | 716.85 ± 0.32 | 707.21 ± 0.33 | – | – | – | 0.912 ± 0.029 | 0.726 ± 0.024 | 0.614 ± 0.021
[1], x1 = 0.65 | 731.11 ± 0.32 | 721.69 ± 0.32 | 711.98 ± 0.33 | – | – | – | 0.984 ± 0.031 | 0.786 ± 0.026 | 0.649 ± 0.022
[1], x1 = 0.7 | 736.55 ± 0.32 | 727.03 ± 0.32 | 717.21 ± 0.33 | – | – | – | 1.107 ± 0.035 | 0.866 ± 0.028 | 0.706 ± 0.024
[1], x1 = 0.75 | 742.44 ± 0.31 | 732.81 ± 0.32 | 722.88 ± 0.32 | – | – | – | 1.297 ± 0.041 | 0.994 ± 0.031 | 0.798 ± 0.026
[1], x1 = 0.8 | 748.88 ± 0.31 | 739.1 ± 0.32 | 729.03 ± 0.32 | – | – | – | 1.557 ± 0.049 | 1.14 ± 0.036 | 0.889 ± 0.028
[1], x1 = 0.85 | 755.87 ± 0.31 | 745.89 ± 0.32 | 735.65 ± 0.32 | – | – | – | 1.895 ± 0.06 | 1.332 ± 0.042 | 1.028 ± 0.032
[1], x1 = 0.9 | 763.54 ± 0.31 | 753.43 ± 0.32 | 743.04 ± 0.32 | – | – | – | 2.426 ± 0.076 | 1.622 ± 0.051 | 1.164 ± 0.037
[1], x1 = 0.95 | 771.9 ± 0.31 | 761.62 ± 0.31 | 751.07 ± 0.32 | – | – | – | 3.172 ± 0.1 | 2.02 ± 0.064 | 1.398 ± 0.044
[1], x1 = 1 | 780.99 ± 0.31 | 770.7 ± 0.31 | 760.05 ± 0.32 | – | – | – | 4.43 ± 0.14 | 2.622 ± 0.083 | 1.708 ± 0.054
[2], x1 = 0.05 | – | – | – | 1.38834 ± 0.00032 | 1.38325 ± 0.00032 | 1.37818 ± 0.00032 | – | – | –
[2], x1 = 0.1 | – | – | – | 1.38784 ± 0.00032 | 1.38271 ± 0.00032 | 1.37755 ± 0.00032 | – | – | –
[2], x1 = 0.15 | – | – | – | 1.38735 ± 0.00032 | 1.38219 ± 0.00032 | 1.37703 ± 0.00032 | – | – | –
[2], x1 = 0.2 | – | – | – | 1.38693 ± 0.00032 | 1.38177 ± 0.00032 | 1.37655 ± 0.00032 | – | – | –
[2], x1 = 0.25 | – | – | – | 1.3865 ± 0.00032 | 1.38135 ± 0.00032 | 1.37611 ± 0.00032 | – | – | –
[2], x1 = 0.3 | – | – | – | 1.38612 ± 0.00032 | 1.38095 ± 0.00032 | 1.3757 ± 0.00032 | – | – | –
[2], x1 = 0.35 | – | – | – | 1.38573 ± 0.00032 | 1.38055 ± 0.00032 | 1.37528 ± 0.00032 | – | – | –
[2], x1 = 0.4 | – | – | – | 1.38537 ± 0.00032 | 1.38021 ± 0.00032 | 1.37491 ± 0.00032 | – | – | –
[2], x1 = 0.45 | – | – | – | 1.38505 ± 0.00032 | 1.37986 ± 0.00032 | 1.37458 ± 0.00032 | – | – | –
[2], x1 = 0.5 | – | – | – | 1.38473 ± 0.00032 | 1.37955 ± 0.00032 | 1.37427 ± 0.00032 | – | – | –
[2], x1 = 0.55 | – | – | – | 1.38445 ± 0.00032 | 1.37926 ± 0.00032 | 1.37397 ± 0.00032 | – | – | –
[2], x1 = 0.6 | – | – | – | 1.3842 ± 0.00032 | 1.37903 ± 0.00032 | 1.37371 ± 0.00032 | – | – | –
[2], x1 = 0.65 | – | – | – | 1.38398 ± 0.00032 | 1.37881 ± 0.00032 | 1.37348 ± 0.00032 | – | – | –
[2], x1 = 0.7 | – | – | – | 1.38381 ± 0.00032 | 1.37862 ± 0.00032 | 1.37331 ± 0.00032 | – | – | –
[2], x1 = 0.75 | – | – | – | 1.38371 ± 0.00032 | 1.3785 ± 0.00032 | 1.37317 ± 0.00032 | – | – | –
[2], x1 = 0.8 | – | – | – | 1.38368 ± 0.00032 | 1.37847 ± 0.00032 | 1.37313 ± 0.00032 | – | – | –
[2], x1 = 0.85 | – | – | – | 1.38381 ± 0.00033 | 1.37858 ± 0.00033 | 1.37323 ± 0.00033 | – | – | –
[2], x1 = 0.9 | – | – | – | 1.38405 ± 0.00033 | 1.37879 ± 0.00033 | 1.37339 ± 0.00033 | – | – | –
[2], x1 = 0.95 | – | – | – | 1.38436 ± 0.00033 | 1.37914 ± 0.00033 | 1.37372 ± 0.00033 | – | – | –
[2], x1 = 1 | – | – | – | 1.38481 ± 0.00033 | 1.3796 ± 0.00033 | 1.37416 ± 0.00033 | – | – | –
